{"source": "ChEMBL document CHEMBL5370649", "about": "“Novel Coumarin Derivatives Inhibit the Quorum Sensing System and Iron Homeostasis as Antibacterial Synergists against Pseudomonas aeruginosa” (J Med Chem, 2023)", "key": {"Pseudomonas aeruginosa [1]": {"system": "Pseudomonas aeruginosa", "test": "Antibacterial activity against Pseudomonas aeruginosa PAO1 in ABTGC medium assessed as bacterial growth inhibition incubated for 16 hrs", "type": "functional"}, "Pseudomonas aeruginosa [2]": {"system": "Pseudomonas aeruginosa", "test": "Antibiofilm activity against Pseudomonas aeruginosa PAO1 in ABTGC medium assessed as inhibition of biofilm formation incubated for 24 hrs by crystal violet staining based absorbance assay", "type": "functional, organism-based", "settings": "PAO1, 24 h"}, "[3]": {"target": "T1, Transcriptional activator protein LasR (Pseudomonas aeruginosa (strain ATCC 15692 / PAO1 / 1C / PRS 101 / LMG12228)) (UniProt P25084)", "T1 sequence (whole entry)": "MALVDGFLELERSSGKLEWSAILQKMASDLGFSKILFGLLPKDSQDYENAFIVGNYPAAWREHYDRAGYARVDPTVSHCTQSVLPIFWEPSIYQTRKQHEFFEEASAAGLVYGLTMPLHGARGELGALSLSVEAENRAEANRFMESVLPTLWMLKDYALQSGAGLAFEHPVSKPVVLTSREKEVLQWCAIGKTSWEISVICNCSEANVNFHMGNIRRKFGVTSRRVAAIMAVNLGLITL", "test": "Inhibition of LasR-mediated quorum sensing system in Pseudomonas aeruginosa PAO1 assessed as inhibition of elastase production at 1.25 to 20 uM incubated for 24 hrs using BODIPY-FL-labeled DQ elastin conjugate as substrate by fluorometric method", "settings": "dose 1.25-20 µM"}, "[4]": {"test": "Inhibition of quorum sensing system in Pseudomonas aeruginosa PAO1-gfp assessed as inhibition of GFP fluorescence expression at 1.25 to 20 uM and measured for 12 hrs at 15 mins interval by fluorescence assay", "settings": "dose 1.25-20 µM"}, "[5]": {"test": "Inhibition of quorum sensing system in Pseudomonas aeruginosa PAO1-lasB-gfp assessed as inhibition of GFP fluorescence expression at 1.25 to 20 uM and measured for 12 hrs at 15 mins interval by fluorescence assay", "settings": "dose 1.25-20 µM"}, "Pseudomonas aeruginosa [6]": {"system": "Pseudomonas aeruginosa", "test": "Inhibition of iron homeostasis in Pseudomonas aeruginosa PAO1 in ABTGC medium assessed as increase in iron-free pyoverdine production at 1.25 to 20 uM in presence of FeCl3 by fluorescence based microplate reader analysis", "type": "functional, organism-based", "settings": "dose 1.25-20 µM"}, "Pseudomonas aeruginosa [7]": {"system": "Pseudomonas aeruginosa", "test": "Antibiofilm activity against Pseudomonas aeruginosa PAO1 fpvA-overexpressing mutant assessed as inhibition of biofilm formation at 1.25 to 20 uM incubated for 24 hrs by crystal violet staining based absorbance assay", "type": "functional, organism-based", "settings": "dose 1.25-20 µM"}, "Pseudomonas aeruginosa [8]": {"system": "Pseudomonas aeruginosa", "test": "Upregulation of pchB expression in Pseudomonas aeruginosa PAO1 at 20 uM incubated for 24 hrs by RNA sequencing analysis", "type": "functional"}, "Pseudomonas aeruginosa [9]": {"system": "Pseudomonas aeruginosa", "test": "Upregulation of pvdE expression in Pseudomonas aeruginosa PAO1 at 20 uM incubated for 24 hrs by RNA sequencing analysis", "type": "functional"}, "Pseudomonas aeruginosa [10]": {"system": "Pseudomonas aeruginosa", "test": "Upregulation of pvdJ expression in Pseudomonas aeruginosa PAO1 at 20 uM incubated for 24 hrs by RNA sequencing analysis", "type": "functional"}, "Pseudomonas aeruginosa [11]": {"system": "Pseudomonas aeruginosa", "test": "Upregulation of fpvA expression in Pseudomonas aeruginosa PAO1 at 20 uM incubated for 24 hrs by RNA sequencing analysis", "type": "functional"}, "Pseudomonas aeruginosa [12]": {"system": "Pseudomonas aeruginosa", "test": "Downregulation of trpG expression in Pseudomonas aeruginosa PAO1 at 20 uM incubated for 24 hrs by RNA sequencing analysis", "type": "functional"}, "Pseudomonas aeruginosa [13]": {"system": "Pseudomonas aeruginosa", "test": "Downregulation of pqsA expression in Pseudomonas aeruginosa PAO1 at 20 uM incubated for 24 hrs by RNA sequencing analysis", "type": "functional"}, "Pseudomonas aeruginosa [14]": {"system": "Pseudomonas aeruginosa", "test": "Downregulation of rhlB expression in Pseudomonas aeruginosa PAO1 at 20 uM incubated for 24 hrs by RNA sequencing analysis", "type": "functional"}, "Pseudomonas aeruginosa [15]": {"system": "Pseudomonas aeruginosa", "test": "Downregulation of pilD expression in Pseudomonas aeruginosa PAO1 at 20 uM incubated for 24 hrs by RNA sequencing analysis", "type": "functional"}, "Pseudomonas aeruginosa [16]": {"system": "Pseudomonas aeruginosa", "test": "Downregulation of pilT expression in Pseudomonas aeruginosa PAO1 at 20 uM incubated for 24 hrs by RNA sequencing analysis", "type": "functional"}, "Pseudomonas aeruginosa [17]": {"system": "Pseudomonas aeruginosa", "test": "Downregulation of filA expression in Pseudomonas aeruginosa PAO1 at 20 uM incubated for 24 hrs by RNA sequencing analysis", "type": "functional"}, "Pseudomonas aeruginosa [18]": {"system": "Pseudomonas aeruginosa", "test": "Downregulation of mexE expression in Pseudomonas aeruginosa PAO1 at 20 uM incubated for 24 hrs by RNA sequencing analysis", "type": "functional"}, "Pseudomonas aeruginosa [19]": {"system": "Pseudomonas aeruginosa", "test": "Antibiofilm activity against in Pseudomonas aeruginosa PAO1 assessed as pilus formation at 5 to 40 uM incubated for 16 hrs by SEM analysis", "type": "functional, organism-based", "settings": "dose 5-40 µM"}, "L02": {"system": "L02", "test": "Cytotoxicity against human L02 cells assessed as reduction in cell viability upto 50 uM incubated for 24 hrs by MTT assay", "type": "toxicity, cell-based", "settings": "l02, 24 h"}, "A549": {"system": "A549", "test": "Cytotoxicity against human A549 cells assessed as reduction in cell viability upto 50 uM incubated for 24 hrs by MTT assay", "type": "toxicity, cell-based", "settings": "a549, 24 h"}, "[20]": {"test": "Toxicity in Zebrafish embryo assessed as survival rate of zebrafish larvae at 10 to 200 uM and mesured upto 120 hrs post fertilization", "design": "species or system Danio rerio", "settings": "in vivo, dose 10-200 µM"}, "Pseudomonas aeruginosa [21]": {"system": "Pseudomonas aeruginosa", "test": "Synergistic antibacterial activity against Pseudomonas aeruginosa PAO1 infected in Balb/c mouse wound infection model assessed as healing degree of wound at 50 uM,TOP QD for 3 days and measured after 9 days in presence of Tobramycin", "type": "functional, organism-based", "settings": "time 3.0 day"}, "[22]": {"test": "Toxicity in Balb/c mouse wound infection model infected with Pseudomonas aeruginosa PAO1 assessed as body weight change at 50 uM,TOP for 3 days in Tobramycin", "settings": "in vivo, topical_or_ocular, 72 h, time 3 day"}, "[23]": {"test": "Toxicity in Balb/c mouse wound infection model infected with Pseudomonas aeruginosa PAO1 assessed as morphological changes in liver at 50 uM,TOP for 3 days in Ciprofloxacin by H and E staining based analysis", "type": "tissue-based", "settings": "in vivo, topical_or_ocular, 72 h, time 3 day"}, "[24]": {"test": "Toxicity in Balb/c mouse wound infection model infected with Pseudomonas aeruginosa PAO1 assessed as morphological changes in spleen at 50 uM,TOP for 3 days in Ciprofloxacin by H and E staining based analysis", "type": "tissue-based", "settings": "in vivo, topical_or_ocular, 72 h, time 3 day"}, "[25]": {"test": "Toxicity in Balb/c mouse wound infection model infected with Pseudomonas aeruginosa PAO1 assessed as morphological changes in lung at 50 uM,TOP for 3 days in Ciprofloxacin by H and E staining based analysis", "type": "tissue-based", "settings": "in vivo, topical_or_ocular, 72 h, time 3 day"}, "[26]": {"test": "Toxicity in Balb/c mouse wound infection model infected with Pseudomonas aeruginosa PAO1 assessed as morphological changes in kidney at 50 uM,TOP for 3 days in Ciprofloxacin by H and E staining based analysis", "type": "tissue-based", "settings": "in vivo, topical_or_ocular, 72 h, time 3 day"}, "[27]": {"test": "Toxicity in Balb/c mouse wound infection model infected with Pseudomonas aeruginosa PAO1 assessed as morphological changes in heart at 50 uM,TOP for 3 days in Tobramycin by H and E staining based analysis", "type": "tissue-based", "settings": "in vivo, topical_or_ocular, 72 h, time 3 day"}}, "note": "The source made the active and inactive calls. The calls are words filed in the database; no cut-off is given here."}
{"molecule": "Cc1ccc2oc(=O)cc(OCCCCCCC(=O)NO)c2c1", "values": [{"measurement": "MIC", "setting": "Pseudomonas aeruginosa [1]", "result": "> 256", "unit": "µM"}, {"measurement": "IC50", "setting": "Pseudomonas aeruginosa [2]", "result": 3.66, "unit": "µM"}, {"measurement": "inhibition", "setting": "[3]", "result": "Dose-Dependent Effect"}, {"measurement": "inhibition", "setting": "[4]", "result": "inactive"}, {"measurement": "inhibition", "setting": "[5]", "result": "Dose-Dependent Effect"}, {"measurement": "inhibition", "setting": "Pseudomonas aeruginosa [6]", "result": "Active"}, {"measurement": "inhibition", "setting": "Pseudomonas aeruginosa [7]", "result": "inactive"}, {"measurement": "Activity", "setting": "Pseudomonas aeruginosa [8]", "result": "Active"}, {"measurement": "Activity", "setting": "Pseudomonas aeruginosa [9]", "result": "Active"}, {"measurement": "Activity", "setting": "Pseudomonas aeruginosa [10]", "result": "Active"}, {"measurement": "Activity", "setting": "Pseudomonas aeruginosa [11]", "result": "Active"}, {"measurement": "Activity", "setting": "Pseudomonas aeruginosa [12]", "result": "Active"}, {"measurement": "Activity", "setting": "Pseudomonas aeruginosa [13]", "result": "Active"}, {"measurement": "Activity", "setting": "Pseudomonas aeruginosa [14]", "result": "Active"}, {"measurement": "Activity", "setting": "Pseudomonas aeruginosa [15]", "result": "Active"}, {"measurement": "Activity", "setting": "Pseudomonas aeruginosa [16]", "result": "Active"}, {"measurement": "Activity", "setting": "Pseudomonas aeruginosa [17]", "result": "Active"}, {"measurement": "Activity", "setting": "Pseudomonas aeruginosa [18]", "result": "Active"}, {"measurement": "Activity", "setting": "Pseudomonas aeruginosa [19]", "result": "Dose-Dependent Effect"}, {"measurement": "Activity", "setting": "L02", "result": "Non-Toxic"}, {"measurement": "Activity", "setting": "A549", "result": "Non-Toxic"}, {"measurement": "Activity", "setting": "[20]", "result": "Non-Toxic"}, {"measurement": "Activity", "setting": "Pseudomonas aeruginosa [21]", "result": "Active"}, {"measurement": "Activity", "setting": "[22]", "result": "Non-Toxic"}, {"measurement": "Activity", "setting": "[23]", "result": "Non-Toxic"}, {"measurement": "Activity", "setting": "[24]", "result": "Non-Toxic"}, {"measurement": "Activity", "setting": "[25]", "result": "Non-Toxic"}, {"measurement": "Activity", "setting": "[26]", "result": "Non-Toxic"}, {"measurement": "Activity", "setting": "[27]", "result": "Non-Toxic"}]}
